For assay [1], the system named is Fertilized Cobb 500 broiler eggs. Nature of the assay: Pectoralis major NAD+ quantification, NAD/NADH assay kit (second Example VI). It counts as in vivo, chicken. To be noted: hatched chicks. On the procedure: Nicotinamide adenine dinucleotide content of the right PMM was quantified using a commercial NAD/NADH assay kit (Abnova, Taipei, Taiwan). Twenty-milligram of PMM tissue was homogenized in a propriety NAD extraction buffer, heated at 60° C. for 5 min, and propriety assay and NADH buffers were added. Samples were centrifuged at 14,000 rpm for 5 min and the supernatant was used for analysis. Standards, samples, and working reagent [propriety assay buffer, enzymes, lactate, and 3-(4,5-dimethylthiazol-2-yl)-2,5-diphenyltetrazolium bromide] were loaded onto 96-well plates and absorbance was read at 565 nm at 0 and 15 min. The change in absorbance was used to calculate amount of NAD+.

Assay [2] shares this test system. Nature of the assay: Pectoralis major muscle fiber morphometrics and satellite cell content (second Example VI). It counts as in vivo, chicken. On the procedure:
The methods of Gonzalez and Jackson (2020) were followed for immunohistochemistry analysis. On 2 separate slides, 6 cryosections (10 μm thick) were collected on positively charged slides (Diamond White Glass; Globe Scientific Inc., Paramus, N.J.). Cryosections were incubated in 5% horse serum and 0.2% TritonX-100 in phosphate buffered saline (PBS) for 30 min to block all nonspecific binding sites. Cryosections were incubated for 16 h at 4° C. with a primary antibody solution comprising blocking solution and 1:500 rabbit α-dystrophin (Thermo Scientific, Waltham, Mass.) and 1:2 […] α-Pax7 antibody (Developmental Studies Hybridoma Bank, Iowa City, Iowa). Cryosections were washed 3 times for 5 min with PBS and incubated for 30 min with 1:1,000 Alexa-Flour 594 goat-anti-rabbit H&L (Life Technologies, Carlsbad, Calif.), 1:1000 Alexa-Flour 488 chicken-anti-mouse IgG1 (Life Technologies), and 1:1,000 Hoescht Dye 33342 (Life technologies) secondary antibodies in blocking solution. After washing in PBS 3 times for 5 min, 5 μL of 9:1 glycerol in PBS was placed on each cryosection and slides were coverslipped for imaging. All cryosections were imaged at 200× magnification using a Nikon Eclipse TI-U inverted microscope (Nikon Instruments Inc., Melville, N.Y.). Immunohistochemistry photomicrographs were collected with a DS-QiMC digital camera (Nikon Instruments Inc.) and SDH cryosections were collected with a Nikon DS-Fil color digital camera (Nikon Instruments Inc.) White light intensity was kept constant for SDH photomicrographs. All photomicrograph collection and image analyses were conducted using NIS Elements Basic Software (Nikon Instruments Inc.). Cross-sectional area (CSA) of a minimum of 1,000 muscle fibers per chick was determined as the area within the dystrophin border. The number of satellite cell was determined as nuclei co-staining for Pax 7 and Hoechst dye located at the periphery of muscle fiber. A minimum of 50 muscle fiber bundles per chick were analyzed for SDH mean intensity using the same software. The scale for mean intensity ranged from 0 (black or the most intense staining) to 250 (white or the least intense staining).

The mark [3] stands for this setting: 250, 500 mM or 1 M NR, hatched chicks.
[4] abbreviates: 250 and 500 mM NR, hatched chicks.

As to `NC(=O)c1ccc[n+]([C@@H]2O[C@H](CO)[C@@H](O)[C@H]2O)c1` [Nicotinamide riboside, nicotinamide riboside], the “NAD+ content of PMM vs the other 3 treatment groups” value in assay [1] (1,000 mM NR) is “more NAD^+”. For the same compound, in assay [1] (250 and 500 mM NR), the “NAD+ content of PMM among 0, 250 and 500 mM groups” value was “did not differ”. The “Increase of satellite cell density compared to control” value in assay [2] (250 mM NR, at hatching) came to 73%. Besides, in assay [2] (250 mM NR, hatched chicks), the “Satellite cell density vs control chicks” value is recorded as “greater”. Besides, in assay [2] (500 mM and 1 M NR, at hatching), the “Average increase of satellite cell density compared to control” value is given as 116%. For the same compound, the “Satellite cell density vs 0 and 250 mM treatments” value in assay [2] (500 mM or 1 M NR, hatched chicks) is recorded as “greater satellite cell density”. For the same compound, in assay [2] (1 M NR, hatched chicks), the “Increase of muscle fiber density compared to control chicks” value is 75% and the “Muscle fiber density vs all other treatments” value is “greater muscle fiber density”. In assay [2] (setting [3]), the “Muscle fiber CSA” value is on record as “no treatment effect” and the “Number of satellite cells per muscle fiber” value is “no treatment effect”. In assay [2] (setting [4]), the “Increase of muscle fiber density compared to control chicks (average)” value was determined as 34% and the “Muscle fiber density vs control chicks” value was “greater muscle fiber density”.
